{"source": "patent US20230346816A1", "about": "“COMPOUNDS AND METHODS FOR TREATING VIRAL INFECTION” (priority 2020, published 2023)", "key": {"IL-6": {"system": "IL-6", "experiment": "Gene expression analysis (quantitative PCR) of IL-6 in primary human chondrocytes", "format": "cell-based", "details": "IL-1β, 1 or 10 mM, 24 hrs, FIG. 3", "description": "(§1) Normal cartilage were obtained from autopsy services at the hospital of University of Virginia, approved by the Institutional Review Board. Articular cartilage were harvested from the femoral condyles and the tibial plateaus. Cartilage shavings were harvested at the operation room and placed in tissue culture medium (DMEM, 10% FBS, penicillin, streptomycin), and shipped to the laboratory at 4° C. Chondrocytes were isolated by incubation of the cartilage fragments with 0.01% collagenase NB4 (Fisher Scientific, Catalog No. 50-204-1257) for 4 hrs at 37° C. Cells were maintained in continuous monolayer cultures in DMEM containing 10% FBS. Experiments were performed with cells less than 3 passages. When necessary, trypsin were used for cell passage.\n(§2) Cells, as prepared in the MATERIALS section, were seeded in a 24-well plate (3×10^5/well) and incubated with culture medium overnight. Cells were then treated with Compound 2 at various concentrations in DMEM containing 2% FBS (1 or 10 mM) for 24 hrs. […] Synthesis of cDNA from total RNA and the quantitative PCR were carried out by using the iscript™ cDNA synthesis kit and the iQ™ SYBR Green Supermix kit (Bio-Rad Laboratories, Hercules, CA), respectively. […] The threshold cycle (CT) value were calculated from amplification plots. Data were analyzed using the 2-ΔΔCT method with 18s rRNA serving as the reference. […]"}, "COX-2": {"system": "COX-2", "experiment": "Gene expression analysis (quantitative PCR) of COX-2 in primary human chondrocytes", "format": "cell-based", "details": "IL-1β, 1 or 10 mM, 24 hrs, FIG. 4", "description": "as §1, §2"}, "COVID-19": {"system": "COVID-19", "experiment": "Prospective observational cohort study of NAG in hospitalized COVID-19 patients vs retrospective control arm", "format": "in vivo"}, "[1]": {"details": "NAG (n = 48) vs control (n = 100), univariate"}, "[2]": {"details": "multiple logistic regression, NAG (ref = control)"}}, "data": [{"smiles": "CC(=O)N[C@H]1[C@H](O)O[C@H](C)C[C@@H]1O", "note": "[Cpd 2, 2-(acetylamino)-2,4,6-trideoxy-β-D-glucopyranose]", "values": [{"measurement": "Expression of pro-inflammatory gene IL-6", "setting": "IL-6", "result": "dose-dependent inhibition"}, {"measurement": "Expression of pro-inflammatory gene COX-2", "setting": "COX-2", "result": "dose-dependent inhibition"}]}, {"smiles": "CC(=O)N[C@@H]1[C@@H](O)[C@H](O)[C@@H](CO)O[C@H]1O", "note": "[NAG, N-((2R,3R,4R,5S,6R)-2,4,5-trihydroxy-6-(hydroxymethyl)-tetrahydro-2H-pyran-3-yl)acetamide]", "values": [{"measurement": "Intubation, %", "setting": "COVID-19; 700 mg NAG every 12 hours plus standard of care, NAG group n = 48", "result": "(16.7%)"}, {"measurement": "ICU admission, odds ratio", "setting": "COVID-19; [1]", "result": 0.53}, {"measurement": "Mortality, odds ratio", "setting": "COVID-19; [1]", "result": 0.37}, {"measurement": "Poor clinical outcome, odds ratio", "setting": "COVID-19; [1]", "result": 0.30}, {"measurement": "Intubation, odds ratio", "setting": "COVID-19; NAG (n = 48) vs control (n = 100), univariate, Fisher's exact test", "result": 0.60}, {"measurement": "Hospital LOS, Hodges-Lehmann difference", "setting": "COVID-19; NAG (n = 48) vs control (n = 100), univariate, Mann-Whitney U test", "result": 0.0}, {"measurement": "ICU admission, %", "setting": "COVID-19; NAG group n = 48", "result": "(22.9%)"}, {"measurement": "Poor clinical outcome (combined death/hospice initiation), %", "setting": "COVID-19; NAG group n = 48", "result": "(12.5%)"}, {"measurement": "Hospital LOS, median", "setting": "COVID-19; NAG group n = 48, median (IQR) [range]", "result": 7}, {"measurement": "Hospice initiation, %", "setting": "COVID-19; excludes patients that died, NAG n = 42", "result": "(0%)"}, {"measurement": "Hospice initiation, odds ratio", "setting": "COVID-19; excludes patients that died, NAG n = 42 vs control n = 72, univariate", "result": 0.00}, {"measurement": "ICU admission, odds ratio (multivariate)", "setting": "COVID-19; [2]", "result": 0.32}, {"measurement": "Poor clinical outcome rate, odds ratio (multivariate)", "setting": "COVID-19; [2]", "result": 0.30}, {"measurement": "Hospital length of stay, β-coefficient", "setting": "COVID-19; multivariate linear regression, NAG (ref = control)", "result": "−4.27"}, {"measurement": "ICU LOS, median", "setting": "COVID-19; only patients admitted to the ICU, NAG n = 10", "result": 2.5}, {"measurement": "ICU LOS, Hodges-Lehmann difference", "setting": "COVID-19; only patients admitted to the ICU, NAG n = 10 vs control n = 36, univariate", "result": 4.0}, {"measurement": "Duration of oxygen, Hodges-Lehmann difference", "setting": "COVID-19; only patients that required oxygen support, NAG n = 46 vs control n = 86, univariate", "result": 0.0, "unit": "days"}, {"measurement": "Difference between control and NAG groups for intubation rates, hospital LOS, ICU admission, ICU LOS, duration of oxygen use, or hospice initiation", "setting": "COVID-19; univariate analysis", "result": "no significant differences"}]}]}
